# Assays:
# Wistar rats [1] = assay: ABR threshold shifts, noise induced hearing loss (NIHL); type: in vivo, rat
# Procedure: Male Wistar rats (150-250 gm) were used for this study under an animal care protocol approved by the Laboratory and Animal Care and Use Committee (SIU School of Medicine). Pre-treatment ABRs were performed. Animals were then treated according to the experimental paradigm. Prevention strategy: consisted of administration of ETA either intra-tympanic ally (IT) (250 μg/50 μl) or subcutaneously (sc) (3 mg/kg) or PBS (IT-50 μl or sc-1 ml) either 3 days or 7 days prior to noise exposure (NE).
# Animals were exposed to noise (NE), and then provided ETA treatments either IT or SC at either 2 h or 24 h post noise injury. Post treatment ABR thresholds were determined at 21 days post noise exposure and cochleae were excised for morphological, molecular and biochemical studies. Cochleae used for RNA preparations were flushed immediately with RNA later and kept in RNA later for 24 h at 4° C. Those used for immunohistochemical studies were perfused and fixed with 4% paraformaldehyde, while those used for Scanning electron microscopy (SEM) were perfused and fixed with 2.5% glutaraldehyde. Cochleae used for whole mounts were decalcified for 7-10 days in 100 mM EDTA at room temperature.
# Male Wistar rats were exposed to octave band noise at 122 dB centered at 16 kHz for 1 h under isofluorane anesthesia, with the 3 inch silicon tubes attached to the high frequency transducer resting in the middle ear cavity. This exposure typically results in a 30-50 dB temporary threshold shift (measured as an immediate pre-to-post noise exposure shift in ABR thresholds) across all frequencies; with slightly more elevation at those frequencies around 16 kHz and 20-40 dB permanent threshold shift measured at 21 days post noise exposure at all frequencies. Acoustic stimuli are calibrated using a cloth model rat and a Bruel & Kjaer Pulse System with a ½ inch free-field microphone (B&K model 4191). Baseline noise levels in the test chamber (with background test noise turned off) are typically measured below 20 dB SPL in the 4-40 kHz range.
# Pre-treatment ABR thresholds were determined using the high frequency Intelligent Hearing Systems (IHS) on naive rats prior to any treatment or noise exposure for each ear. Animals were tested with a stimulus intensity series that was initiated at 0 dB sound pressure level (SPL) and reached a maximum at 90 dB SPL. The stimulus intensity levels were increased in 10 dB increments, and the evoked ABR waveforms were observed on a video monitor. The auditory stimuli included tone bursts at 8, 16, and 32 kHz with a 10 msec plateau and a 1 msec rise/fall time presented at a rate of 5/sec. Threshold was defined as the lowest intensity capable of evoking a reproducible, visually detectable response with two distinct waveforms and minimum amplitude of 0.5 μV.
# Preconditioning of the TRPV1 receptor in the rat cochlea by oral administration of capsaicin is shown here to protect from NIHL. Male Wistar rats weighing 200-250 gms were used. ABRs from naïve rats were recorded. Rats were then treated with oral phosphate buffered saline (PBS—1 ml) or capsaicin (1 ml of 20 mg/ml) starting 24 hrs prior to NE, on the day of NE, and 24 hrs post NE. The final ABRs were recorded 21 days post NE. Cochleae were collected for various biochemical tests and immunohistochemistry. At least 6 animals were used per treatment group. NE caused an ABR threshold shift of 21.6±1.7, 35.5±1.9 and 43.9±2.3 dB threshold shift at 8, 16 and 32 kHz respectively. Oral capsaicin treatment completely protects from NIHL (3.9±1.4, 6.1±1.8 and 8.9±2.1 dB threshold shift at 8, 16 and 32 kHz respectively), there is no significant change in ABR threshold shift compared to control. […] Statistical significance was calculated using one way ANOVA with Tukey's post-hoc analyses, p<0.05 (FIG. 16.A.).
# ABR measurements were conducted in naïve male Wistar rats. […]
# rat cochlea = assay: Cochlear gene expression by qPCR after noise exposure; type: in vivo
# Procedure: Cochleae were pared down to the bone, crushed in liquid nitrogen followed by extraction in 500 μl of TRI reagent. 0.1 ml of chloroform was added, and the tube was shaken vigorously for 15 seconds and centrifuged at 12,000×g for 15 min. RNA was extracted by washing the pellet with 0.5 ml ice-cold isopropanol followed by cold 75% treated ethanol. The ethanol was removed and the tube was air dried briefly. The RNA pellet was resuspended in nuclease free water and RNA levels were determined using optical density readings corresponding to wavelengths of 260 nm, 280 and 320 nm using a spectrophotometer (Eppendorf BioPhotometer, Hamburg, Germany).
# 500 ng of total RNA was converted to cDNA using iScript cDNA Synthesis Kit (Bio-Rad, Hercules, CA). The reaction mixture was set up as follows: Ing of total RNA, 4 μl of iScript reaction mix, 1 μl of iScript reverse transcriptase, nuclease free water to bring the total volume to 20 μl. The reaction mix was incubated at 25° C. for 5 min, 42° C. for 30 minutes and 85° C. for 5 minutes. This cDNA reaction mix was used for real time PCR, as described previously [Mukherjea et al., 2006]. Gene specific primer pairs were used for the various reactions and mRNA expression levels were normalized to the levels of GAPDH. The primer sets were purchased from Sigma Genosys (St. Louis, MO), and were as follows: […]
# [2] = 25 mg ETA twice a week for 24 weeks; Matteson et al.; cited from earlier work
# Wistar rats [3] = assay: Restoration of hearing after permanent threshold shifts (Example 10B); type: in vivo, rat; details: treatment after PTS at 4 weeks; oral capsaicin 5 mg/kg 3 days, ETA 1 mg/kg s.c. day 2, three weeks
# Procedure: FIG. 23A is a schematic showing the experimental paradigm used in Example 10B. Pre-treatment baseline ABRs were performed in naïve male Wistar rats. The rats were then used either as sham controls (no noise exposure) or exposed-noise (122 dB, OBN centered at 16 kHz for 1 hour). Post noise exposure ABRs were repeated at 4 weeks to establish permanent threshold shifts (PTS). […] Final ABR threshold values were evaluated at week 9 post noise exposure.
# Values shown in FIGS. 23A-23C and otherwise provided with respect to this Example 10B are expressed as the mean±SEM. Statistical significance was analyzed using the ANOVA and Tukey's host hoc analysis.
# [4] = TT ETA rescue at 24 hours post NE
# [5] = TT ETA rescue within 2 hours post NE
# [6] = TT-ETA 250 μg/50 μl, 3 day pre-treatment, 21 days post NE
# [7] = s.c. ETA rescue at 24 hours post NE
# [8] = s.c. ETA rescue within 2 hours post NE
# [9] = subcutaneous ETA 3 mg/kg, 3 day pre-treatment, 21 days post NE
substance,measurement,setting,value
etanercept,increase in hearing threshold (hearing loss),"Wistar rats [1]; ETA pre-treatment sc or TT, 3 or 7 days prior to NE (FIG. 17.A)",5-10 dB
same,threshold shifts,Wistar rats [1]; TT ETA at 2 h post NE (FIG. 17.B),20-37.5 dB
same,ABR threshold shift at 8 kHz,Wistar rats [1]; [4],22.5±2.9 dB
same,ABR threshold shift at 16 kHz,Wistar rats [1]; [4],31.25±3.2 dB
same,ABR threshold shift at 32 kHz,Wistar rats [1]; [4],37.5±3.7 dB
same,ABR threshold shift at 8 kHz,Wistar rats [1]; [5],20±2.6 dB
same,ABR threshold shift at 16 kHz,Wistar rats [1]; [5],30±2.7 dB
same,ABR threshold shift at 32 kHz,Wistar rats [1]; [5],33.75±2.7 dB
same,ABR threshold shift at 8 kHz,"Wistar rats [1]; TT ETA, 7 day pretreatment",16.25±3.25 dB
same,ABR threshold shift at 16 kHz,"Wistar rats [1]; TT ETA, 7 day pretreatment",16.25±3.75 dB
same,ABR threshold shift at 32 kHz,"Wistar rats [1]; TT ETA, 7 day pretreatment",16.25±4.6 dB
same,ABR threshold shift at 8 kHz,Wistar rats [1]; [6],1.25±1.25 dB
same,ABR threshold shift at 16 kHz,Wistar rats [1]; [6],0 dB
same,ABR threshold shift at 32 kHz,Wistar rats [1]; [6],3.75±1.8 dB
same,Wave 1 amplitude versus sound intensity,"Wistar rats [1]; capsaicin 5 mg/kg oral, ETA 1 mg/kg, noise exposure (FIG. 18.B)",partial restoration
same,ABR threshold shift at 8 kHz,"Wistar rats [1]; s.c ETA, 7 day pretreatment",12.5±3.6 dB
same,ABR threshold shift at 16 kHz,"Wistar rats [1]; s.c ETA, 7 day pretreatment",15±5 dB
same,ABR threshold shift at 32 kHz,"Wistar rats [1]; s.c ETA, 7 day pretreatment",16.25±5.3 dB
same,ABR threshold shift at 8 kHz,Wistar rats [1]; [7],21.25±3.9 dB
same,ABR threshold shift at 16 kHz,Wistar rats [1]; [7],22.5±4.9 dB
same,ABR threshold shift at 32 kHz,Wistar rats [1]; [7],26.25±5.6 dB
same,ABR threshold shift at 8 kHz,Wistar rats [1]; [8],9.16±2.6 dB
same,ABR threshold shift at 16 kHz,Wistar rats [1]; [8],15.8±4.5 dB
same,ABR threshold shift at 32 kHz,Wistar rats [1]; [8],20.8±6.0 dB
same,ABR threshold shift at 8 kHz,Wistar rats [1]; [9],4±1.6 dB
same,ABR threshold shift at 16 kHz,Wistar rats [1]; [9],8±2.5 dB
same,ABR threshold shift at 32 kHz,Wistar rats [1]; [9],11±18 dB
same,threshold shift,Wistar rats [1]; subcutaneous ETA at 2 h post NE (FIG. 17.B),10-25 dB
same,"TRPV1, TNF-α and COX2 expression",rat cochlea; ETA rescue by TT injection at 24 hours,"unable to decrease the TRPV1, TNF-α and COX2 to basal levels"
same,"NE induced up regulation of TRPV1, TNF-α, NOX3, COX2, iNOS and Bax",rat cochlea; pretreatment with ETA,prevents the NE induced up regulation
same,side effects,[2],no side effects
same,average hearing threshold shifts at 9 weeks,Wistar rats [3],25-38 dB

# Reference: patent publication US12162935B2, “Regimens, compositions and methods with capsaicin and TNF-alpha inhibitor” (priority 2018, dated 2024)
